Key:
[1] = xn = mol fraction of the nth substance listed

COCCOCCO [2-(2-methoxyethoxy)ethanol]
Conditions	surface tension liquid-gas [mN/m]
298.15 K	34.73
308.15 K	33.91
318.15 K	32.95

COCCOCCOCCO [2-[2-(2-methoxyethoxy)ethoxy]ethanol] + O
surface tension liquid-gas [mN/m], [1]
Conditions	x1 = 0.0564	x1 = 0.0964	x1 = 0.1673	x1 = 0.3525	x1 = 0.474	x1 = 0.5536	x1 = 0.6606	x1 = 0.7512	x1 = 0.8736	x1 = 1
298.15 K	54.62	47.43	41.73	40.45	39.1	37.76	37.13	36.91	36.69	36.28
308.15 K	53.11	45.98	40.46	39.45	38.29	37.04	36.49	36.35	36.18	35.79
318.15 K	51.53	44.95	39.01	38.12	37.42	36.12	35.85	35.46	35.29	35.21

COCCOCCO [2-(2-methoxyethoxy)ethanol] + O
surface tension liquid-gas [mN/m], [1]
Conditions	298.15 K	308.15 K	318.15 K
x1 = 0.0374	58.57	57.12	55.97
x1 = 0.0558	55.28	53.9	52.21
x1 = 0.1191	45.14	43.86	43.13
x1 = 0.1951	41.05	39.78	38.96
x1 = 0.3021	40.02	38.8	38.55
x1 = 0.4427	38.27	37.12	36.31
x1 = 0.491	37.57	36.46	35.26
x1 = 0.5502	36.87	35.92	34.53
x1 = 0.7494	35.37	34.49	33.45
x1 = 0.8564	35.02	34.18	33.12
x1 = 1	34.73	33.91	32.95

COCCOC [1,2-dimethoxyethane]
Conditions	surface tension liquid-gas [mN/m]
298.15 K	23.79
308.15 K	22.91
318.15 K	21.89

O [water] + COCCOCCO
[1], x2 = 0
Conditions	surface tension liquid-gas [mN/m]
298.15 K	71.99
308.15 K	70.38
318.15 K	68.82

O [water] + COCCOC
[1], x2 = 0
Conditions	surface tension liquid-gas [mN/m]
298.15 K	71.99
308.15 K	70.38
318.15 K	68.82

O [water] + COCCO
[1], x2 = 0
Conditions	surface tension liquid-gas [mN/m]
298.15 K	71.99
308.15 K	70.38
318.15 K	68.82

COCCOC [1,2-dimethoxyethane] + O
surface tension liquid-gas [mN/m], [1]
Conditions	x1 = 0.047	x1 = 0.066	x1 = 0.0759	x1 = 0.1286	x1 = 0.1942	x1 = 0.2612	x1 = 0.4132	x1 = 0.6313	x1 = 1
298.15 K	48.35	42.42	40.62	31.96	28.55	27.81	26.08	25.41	23.79
308.15 K	46.83	40.97	39.26	30.69	27.43	26.81	25.12	24.49	22.91
318.15 K	46.47	40.62	37.71	29.26	26.53	25.92	24.78	23.6	21.89

COCCOCCOCCO [2-[2-(2-methoxyethoxy)ethoxy]ethanol]
Conditions	surface tension liquid-gas [mN/m]
298.15 K	36.28
308.15 K	35.79
318.15 K	35.21

COCCO [2-methoxyethan-1-ol]
Conditions	surface tension liquid-gas [mN/m]
298.15 K	30.82
308.15 K	30.02
318.15 K	29.1

O [water] + COCCOCCOCCO
[1], x2 = 0
Conditions	surface tension liquid-gas [mN/m]
298.15 K	71.99
308.15 K	70.38
318.15 K	68.82

O [water]
Conditions	surface tension liquid-gas [mN/m]
298.15 K	71.99
308.15 K	70.38
318.15 K	68.82

COCCO [2-methoxyethan-1-ol] + O
surface tension liquid-gas [mN/m], [1]
Conditions	298.15 K	308.15 K	318.15 K
x1 = 0.0509	56.33	55.17	53.9
x1 = 0.0559	55.11	54.04	52.82
x1 = 0.1052	46.86	45.88	44.8
x1 = 0.1494	43.31	42.37	41.35
x1 = 0.2215	39.7	38.81	37.83
x1 = 0.3373	36.75	35.89	34.92
x1 = 0.4783	35.02	34.18	33.22
x1 = 0.6258	32.91	32.02	31.13
x1 = 0.7814	31.78	30.96	30.02
x1 = 0.8912	31.02	30.21	29.28
x1 = 1	30.82	30.02	29.1
